Reference: ChEMBL document CHEMBL3137667, “[Drug-induced liver injury; fourteenth updated edition of the bibliographic database of liver injuries and related drugs]” (Gastroenterol Clin Biol, 2004)

What was measured:
[1] = Highest frequency of moderate liver toxicity observed during clinical trials, expressed as a percentage. [column '% BIOL' in source]; details: human
[2] = Highest frequency of acute liver toxicity observed during clinical trials, expressed as a percentage. [column '% AIGUE' in source]; details: human
[3] = Times to onset, minimal and maximal, observed in the indexed observations. [column 'DELAI' in source]; details: human
[4] = Proposed mechanism(s) of liver damage. [column 'MEC' in source]; details: human
[5] = human, serum
[6] = human, serum; remark: listed apart in the source
[7] = human
[8] = human; remark: listed apart in the source
[9] = human; remark: listed apart in the source
[10] = human, serum, 4383 h
[11] = human; remark: listed apart in the source
[12] = human; remark: listed apart in the source
[13] = human; remark: listed apart in the source
[14] = human; remark: listed apart in the source
[15] = human; remark: listed apart in the source
[16] = human; remark: listed apart in the source
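For Hepatotoxicity (association with vascular disease) in this document: count of indexed literature references reporting vascular liver injury in humans, e.g. peliosis hepatitis, hepatic veno-occlusive disease or Budd-Chiari syndrome.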
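For Hepatotoxicity (benign tumour) in this document: value is a count of indexed literature references citing a benign tumour confirmed by histopathology.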
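For Hepatotoxicity (choleostasis) in this document: human cholestatic liver injury, shown by histopathology or by peak ALT or AST elevation over alkaline phosphatase ratio below 2, value counts indexed literature reports.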
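For Hepatotoxicity (chronic liver disease) in this document: chronic liver injury confirmed by histopathology or persistently raised serum aminotransferase activity beyond 6 months, value given as the count of indexed literature references.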
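For Hepatotoxicity (cirrhosis) in this document: value is a count of indexed literature references reporting cirrhosis confirmed by histopathology.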
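For Hepatotoxicity (cytolytic) in this document: human cytolytic liver injury, shown by histopathology or by a ratio above 5 of peak ALT or AST elevation to alkaline phosphatase elevation, value counts indexed references.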
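For Hepatotoxicity (granulomatous hepatitis) in this document: value is a count of indexed literature references reporting granulomatous liver disease confirmed by histopathology.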
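For Hepatotoxicity (malignant tumour) in this document: malignant tumour confirmed by histopathology, value gives the count of indexed literature references reporting it.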
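For Hepatotoxicity (severe hepatitis) in this document: human clinical data: severe hepatitis, meaning potentially life-threatening liver failure or clinically observed cases, the value counts how many indexed literature references report it.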
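For Hepatotoxicity (steatosis) in this document: steatosis confirmed by histopathology, value is the count of indexed references.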

Row | Compound | Hepatotoxicity (moderate) [1] [%] | Hepatotoxicity (acute) [2] [%] | Hepatotoxicity (time to onset) [3] | Hepatotoxicity (mechanism) [4] | Hepatotoxicity (moderate) [5] | Hepatotoxicity (acute) [6] | Hepatotoxicity (cytolytic) [7] | Hepatotoxicity (choleostasis) [8] | Hepatotoxicity (severe hepatitis) [9] | Hepatotoxicity (chronic liver disease) [10] | Hepatotoxicity (cirrhosis) [11] | Hepatotoxicity (granulomatous hepatitis) [12] | Hepatotoxicity (association with vascular disease) [13] | Hepatotoxicity (steatosis) [14] | Hepatotoxicity (malignant tumour) [15] | Hepatotoxicity (benign tumour) [16] | other results
1 | O=C1c2c(O)ccc(O)c2C(=O)c2c(NCCNCCO)ccc(NCCNCCO)c21 [MITOXANTRONE] | 80 | 42.8 | 4 days - 24 days | Dose-dependant | 21 | 4 | 0 | 0 | 2 | 0 | 0 | 0 | 0 | 0 | 0 | 0 | –
2 | O=C1CC[C@@]2(O)[C@H]3Cc4ccc(O)c5c4[C@@]2(CCN3CC2CC2)[C@H]1O5 [NALTREXONE] | – | – | 1 month - 2 months | Dose-dependant | 9 | 3 | 3 | 0 | – | 0 | 0 | 0 | 0 | 0 | 0 | 0 | Hepatotoxicity (moderate) ([1]; Liver): 20%; Hepatotoxicity (acute) ([2]; Liver): 0%; Hepatotoxicity (severe hepatitis) ([9]; Liver): 0
3 | Cc1ccnc2c1NC(=O)c1cccnc1N2C1CC1 [NEVIRAPINE] | 47.1 | 37.5 | 8 days - 3 years | Allergic | 18 | 49 | 29 | 2 | 14 | 0 | 0 | 0 | 0 | 0 | 0 | 0 | –
4 | CC1(C)NC(=O)N(c2ccc([N+](=O)[O-])c(C(F)(F)F)c2)C1=O [NILUTAMIDE] | – | – | 1 month - 4 months | – | 5 | 5 | – | – | – | 0 | 0 | – | 0 | 0 | 0 | 0 | Hepatotoxicity (moderate) ([1]; Liver): 8%; Hepatotoxicity (acute) ([2]; Liver): 0%; Hepatotoxicity (mechanism) ([4]; Liver): Reactive metabolite; Hepatotoxicity (cytolytic) ([7]; Liver): 4; Hepatotoxicity (choleostasis) ([8]; Liver): 0; Hepatotoxicity (severe hepatitis) ([9]; Liver): 4; Hepatotoxicity (granulomatous hepatitis) ([12]; Liver): 0
5 | Cc1cc2c(s1)Nc1ccccc1N=C2N1CCN(C)CC1 [OLANZAPINE] | 30 | 0 | 13 days - 15 months | Allergic, Dose-dependant | 13 | 2 | 2 | 1 | 0 | 0 | 0 | 0 | 0 | 1 | 0 | 0 | –
6 | O=c1[nH]c2ccccc2n1CCCN1CCN(C(c2ccccc2)c2ccccc2)CC1 [OXATOMIDE] | 8.3 | 0 | 10 days - 3 months | Allergic | 2 | 4 | 3 | 2 | 0 | 0 | 0 | 0 | 0 | 0 | 0 | 0 | –
7 | CN(C)[C@@H]1C(O)=C(C(N)=O)C(=O)[C@@]2(O)C(O)=C3C(=O)c4c(O)cccc4[C@@](C)(O)[C@H]3[C@H](O)[C@@H]12 [OXYTETRACYCLINE] | 60 | 0 | 5 days - 3 weeks | Dose-dependant | 1 | 2 | 0 | 2 | 1 | 0 | 0 | 0 | 0 | 4 | 0 | 0 | –
8 | CN1CCN(CCCN2c3ccccc3Sc3ccccc32)CC1 [PERAZINE] | 43 | 0.3 | 1.5 months - 1 year | Dose-dependant | 5 | 3 | 2 | 1 | 0 | 0 | 0 | 0 | 0 | 0 | 0 | 0 | –
9 | NC(=O)NC(=O)Cc1ccccc1 [PHENACEMIDE] | 0 | 3 | 1 month - 3 months | Allergic | 1 | 13 | 8 | 0 | 8 | 0 | 0 | 0 | 0 | 0 | 0 | 0 | –
10 | c1ccc(C2(N3CCCCC3)CCCCC2)cc1 [PHENCYCLIDINE] | 49.9 | 0 | 6 hours - 3 days | Dose-dependant | 1 | 2 | 2 | 0 | 2 | 0 | 0 | 0 | 0 | 0 | 0 | 0 | –
11 | CNNCc1ccc(C(=O)NC(C)C)cc1 [PROCARBAZINE] | 0 | 1 | 2 weeks - 3 weeks | Allergic | 0 | 2 | 2 | 0 | 0 | 0 | 0 | 1 | 0 | 0 | 1 | 0 | –
12 | NC(=O)c1ncn([C@@H]2O[C@H](CO)[C@@H](O)[C@H]2O)n1 [RIBAVIRIN] | 33 | 0 | 11 weeks - 6 months | Mitochondrial toxicity | 3 | 2 | 1 | 1 | 1 | 0 | 0 | 0 | 0 | 1 | 0 | 0 | –
13 | CO[C@H]1/C=C/O[C@@]2(C)Oc3c(C)c(O)c4c(c3C2=O)C2=NC3(CCN(CC(C)C)CC3)NC2=C(NC(=O)/C(C)=C\C=C\[C@H](C)[C@H](O)[C@@H](C)[C@@H](O)[C@@H](C)[C@H](OC(C)=O)[C@@H]1C)C4=O [RIFABUTIN] | – | – | 2 weeks - 11 weeks | – | 6 | 2 | – | – | – | 0 | 0 | – | 0 | 0 | 0 | 0 | Hepatotoxicity (moderate) ([1]; Liver): 7.1%; Hepatotoxicity (acute) ([2]; Liver): 0%; Hepatotoxicity (mechanism) ([4]; Liver): Dose-dependant; Hepatotoxicity (cytolytic) ([7]; Liver): 1; Hepatotoxicity (choleostasis) ([8]; Liver): 0; Hepatotoxicity (severe hepatitis) ([9]; Liver): 1; Hepatotoxicity (granulomatous hepatitis) ([12]; Liver): 0
